Measurements: patent publication US8716237B2, “Methods for the treatment or prevention of hemorrhagic conditions” (University of Rochester, priority 2007, dated 2014)

Experiments:
PAI-1 [1] = assay: PAI-1 mRNA expression in mouse embryonic fibroblasts (Q-PCR); type: cell-based; details: Cyld−/− MEF cells; pretreatment with SB203580
Experimental: Cells were cultured on 12-well plates and transfected with various expression plasmids, as described in Examples 1-15 and the Brief Description of the Drawings. All transient transfections were carried out in triplicate using TransIT-LT1 reagent (Minis) following the manufacturer's instructions. […] Transfected cells were pretreated with or without chemical inhibitors including SB203580 (1 μM) for 2 hours. S.p. or pneumolysin was then added to the transfected cells 42 hours after transfection. After 5 hours, the cells were harvested for either RNA extraction and real-time quantitative PCR analysis as described in the Examples or luciferase assay. Luciferase activity was normalized with respect to β-galactosidase activity using the Galacton-Plus substrate system (Tropix) following manufacturer's instruction. In all co-transfections with expression plasmids of signaling molecules, an empty vector was used as a control. […]
(§1) Total RNA was isolated with TRIzol reagent (Invitrogen) by following the manufacturer's instructions. Real-Time Quantitative RT-PCR analysis of PAI-1 and CYLD were performed as described in Jono et al., “NF-κB Is Essential for Induction of CYLD, the Negative Regulator of NF-κB: Evidence for a Novel Inducible Autoregulatory Feedback Pathway,” J. Biol. Chem. 279:36171-4 (2004), which is hereby incorporated by reference in its entirety. […]

PAI-1 [2] = assay: PAI-1 induction in BEAS-2B, SAEC and NHBE cells; type: cell-based, human; details: SB203580
Description: J. Physiol. Lung Cell. Mol. Physiol. 281:L616-23 (2001), and Hasegawa et al., “Decreased Intracellular Iron Availability Suppresses Epithelial Cell Surface Plasmin Generation. Transcriptional and Post-transcriptional Effects on u-PA and PAI-1 Expression,” Am. J. Respir. Cell. Mol. Biol. 21:275-82 (1999), each of which is hereby incorporated by reference in its entirety. Wild type and Cyld-deficient mouse embryonic fibroblasts were obtained from E13 embryos and maintained in DMEM supplemented with 10% FBS (Invitrogen). […]
Cells were cultured on 12-well plates and transfected with various expression plasmids, as described in Examples 1-15 and the Brief Description of the Drawings. […] After 5 hours, the cells were harvested for either RNA extraction and real-time quantitative PCR analysis as described in the Examples or luciferase assay. […]
as §1

## C[S+]([O-])c1ccc(-c2nc(-c3ccncc3)c(-c3ccc(F)cc3)[nH]2)cc1 (stereo not drawn) [SB203580]
PAI-1 [1]
  PAI-1 expression in cells treated with PLY: reduced PAI-1 expression
  PAI-1 expression in cells treated with S. pneumoniae: reduced PAI-1 expression
PAI-1 [2]
  PAI-1 induction by S. pneumoniae WT and PLY: inhibited PAI-1 induction
